# Test results reported in patent US20130225534A1, “METHODS FOR TREATING AN INORGANIC SLURRY” (Rhodia Operations, priority 2003, published 2013).
# Tested on: bacterial contamination of calcium carbonate-based slurry
# Settings: THPS solution added to calcium carbonate-based slurry; in 2 hours
substance,measurement,value
tetrakis(hydroxymethyl)phosphonium sulphate [THPS],reduction in bacterial count,10^4
